“Also recorded” adds a separate entry of the source. Like-named read-outs stand apart in the source and are kept apart here.
Key:
PC12 SOD1^G93A cells [1] = assay: Neuroprotection against MG-132-induced toxicity in PC12 cells expressing mutant SOD1^G93A (calcein-AM viability); assay type: cell-based; details: Rattus norvegicus, PC-12, MG-132-induced toxicity, inactive photoreactive controls, read-out: EC50
Experimental: With this information in hand, we implemented a phenotypic drug discovery approach to identify a novel therapeutic for treating ALS. The study employed a rat PC12 cell-based assay that expresses SOD1^G93A mutation for screening a chemical library of more than 50,000 compounds to identify promising hits (Figure 1 compounds 3 and 4). The hits are based on attenuating proteasome inhibitor MG-132-induced SOD1^G93A cellular toxicity.
Viability EC50 values were determined according to the previously reported assay procedure.[43] Briefly, PC12 cells were seeded at 15,000 cells/well in 96-well plates, and the medium was changed to remove the doxycycline 4 days prior to compound addition. Compounds were assayed in 12-point dose–response experiments to determine the potency and efficacy. The highest compound concentration tested was 32 μM, which was decreased by half with each subsequent dose. After a 24 h incubation with the analytes, MG-132 (400 nM) was added and the cells were incubated at 37 °C for 24 h. The cells were washed twice with PBS. Calcein-AM was added at a final concentration of 1 μM for 20 min at room temperature, and the fluorescence intensity was read in a POLARstar fluorescence plate reader (BMG). EC50 values were determined by standardizing fluorescent signal to DMSO treated controls. […] The presented data represent the mean average of duplicate experiments.

[2] = molecular target: T1, 25 kDa protein band in PC12 SOD1^G93A cells (Rattus norvegicus, UniProt P62260); assay: Competition of PRAPP photoaffinity labeling of the 25 kDa band in PC12-SOD1^G93A cells; assay type: binding; details: for concentration-dependent disappearance of the 25 kDa protein band in competition with PRAPP: scenario 1
T1 construct: we identified a 25 kDa covalently modified protein band in the PC12 SOD1^G93A cell line; endogenous in cells; host or cells: PC12-SOD1^G93A cells (live-cell UV photolabeling, then lysis)
T1 sequence (P62260 1-255): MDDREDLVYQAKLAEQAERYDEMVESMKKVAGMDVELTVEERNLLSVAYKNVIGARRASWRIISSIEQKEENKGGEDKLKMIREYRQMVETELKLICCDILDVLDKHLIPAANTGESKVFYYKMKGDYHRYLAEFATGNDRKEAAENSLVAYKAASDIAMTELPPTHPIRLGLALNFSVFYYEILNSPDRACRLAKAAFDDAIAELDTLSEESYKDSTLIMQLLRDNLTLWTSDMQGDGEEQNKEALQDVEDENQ
Experimental: PC12-SOD1^G93A cells were cultured and grown to 90% confluency (in 6-well plates) and washed once with PBS followed by the addition of serum medium containing the appropriate analyte at the indicated concentrations. Three incubation scenarios were studied (at 37 °C): Scenario 1) 12 h preincubation with PRAPP in the absence of MG-132; Scenario 2) 12 h preincubation with PRAPP in the absence of MG-132 followed by an additional 24 h incubation (control); and Scenario 3) 12 h preincubation with PRAPP followed by the addition of MG-132 (100 nM) and an additional 24 h incubation. After incubation, the medium was discarded and cells were washed with PBS (1 × 300 μL). Fresh serum-free medium was added, and the cells were irradiated with UV light (312 nm, 120 V, 60 Hz, 0.2 A [Spectroline model EB-160C], distance ∼4 cm) for 15 min. The medium was removed, cells were washed with PBS (2 × 500 μL), and 200 μL of lysis buffer containing Tris HCl (25 mM, pH 7.6), NaCl (150 mM), 1% NP40, 1% sodium deoxycholate, 0.1% SDS, and protease inhibitor cocktail (Sigma-Aldrich, 1:100 v/v) was added to each well. Complete lysis was observed by a microscope after 10 min at 4 °C with agitation. Each lysate was centrifuged at 4 °C for 5 min at 13,000 rpm, and the resulting supernatant was concentrated with a centrifugal filter (Amicon Ultra Centrifugal Filters 3K cutoff, Millipore), normalized to 1.0 mg/mL by the Bradford assay, and analyzed immediately or stored at −80 °C for subsequent analysis.
In a darkened (wrapped with aluminum foil) Eppendorf tube, each lysate (30 μL [30 μg]) was incubated with 10 μL of the freshly prepared “click” premix containing CuSO4 (5 mM), sodium ascorbate (5 mM), TBTA (200 μM), and N3–Alexa-647 (50 μM) were added to PBS (50 mM, pH 7.4). The corresponding final concentrations within the lysate click incubation were: CuSO4 (1.25 mM), sodium ascorbate (1.25 mM), TBTA (50 μM), and N3–Alexa-647 (12.5 μM). The mixture was vortexed briefly and incubated for 1.5 h at 37 °C in the dark. NuPAGE LDS sample loading buffer (4 × 13 μL) was added, and the mixture was denatured in boiling water for 10 min. SDS-PAGE was performed on Novex Bis-Tris gel 4–12% with MES SDS running buffer (90 V constant for 30 min followed by 100 V for 90 min; load volume = 25 μL). Protein standards that gave appropriate visible and fluorescent bands for our application included the BioRad Precision Plus All Blue Protein Standard and Novex Pre-Stained Protein Standard. In-gel fluorescence was monitored (excitation λ = 635 nm; emission λ = 670 nm) using a Typhoon 9400 (GE Healthcare) fluorimager. Densitometric analysis and image refinement were carried out as needed using ImageJ software (NIH, open source). The contrast and brightness of images were modified using ImageJ and/or Microsoft Word to enhance visualization for publication purposes.

14-3-3-E = molecular target: T2, 14-3-3-E (Homo sapiens, UniProt P62258); assay: Fluorescent thermal shift assay (FTSA) with 14-3-3-E; assay type: binding; details: SYPRO orange
T2 construct: His-tag (TEV-cleavable) (cleaved yes); host or cells: E. coli (BL21)
T2 sequence (P62258 1-255): T1 sequence (P62260 1-255)
Experimental: His-tagged 14-3-3-E, B, and H plasmids were purchased from Addgene (plasmid ID# 31562, 39128, and 38814, respectively). E. coli (BL21) were transformed with extracted plasmids via heat shock and plated on selected media. Individual colonies were selected, grown, and sequenced to confirm gene presence. 1 L cultures were grown to an OD600 of 0.6 at 37 °C and 220 rpm. Protein expression was induced with 1 mM IPTG and expressed for 12 h at 100 rpm and room temperature (approximately 25 °C). Cells were spun down at 4000 rpm for 15 min at 4 °C and resuspended in lysis buffer containing 50 mM Tris (7.4), 150 mM NaCl, 0.08% DDM, 5 mM imidazole, and 5% glycerol (with an EDTA-free complete mini protease inhibitor cocktail). Cells were lysed via sonication, and the lysate was separated from cell debris by centrifugation at 15,000 rpm, 4 °C, for 45 min. The His-tagged protein was purified using QIAGEN Ni-NTA superflow columns, and the His-tag was removed with TEV protease. His-tag-removed proteins were further purified by size exclusion chromatography. His tag removal and size exclusion chromatography purification were done at the Northwestern University Protein Production core. 14-3-3-Q and 14-3-3-G proteins were purchased from Abchem (catalog numbers ab85270 and ab53869, respectively).
All of the FTSA experiments were conducted in HEPES buffer (60 mM HEPES, 150 mM NaCl, pH 7.4). A DMSO balanced 8-point dilution series of the compound in HEPES buffer was prepared in a 96-well assay plate (200, 100, 50, 25, 12.5, 6.25, 3.125, and 0 μM). Then, a 5 μL volume of the dilution series was transferred to a 384-well PCR plate using a multichannel pipet, and the plate was centrifuged at 1000 rpm for 2 min (the plate was covered with an adhesive aluminum seal). The protein sample was premixed at a concentration of 0.04 μg/μL with a 5X concentration of SYPRO orange in HEPES buffer, and a 5 μL aliquot was added to the compound wells. The plate was covered with an optical adhesive seal and was shaken for 2 min, followed by centrifugation at 1000 rpm for 2 min. The thermal scan was performed from 20 to 90 °C with a temperature gradient of 0.5 °C/min. The fluorescence was measured on a Bio-Rad CFX384 real-time PCR instrument.

PC12 SOD1^G93A cells [3] = details: neuroprotection against MG-132-induced SOD1^G93A toxicity in PC12 cells, cited from earlier work
[4] = system: 25 kDa covalently modified band in HAP1 cells; assay: Photoaffinity labeling with HAP1 wild-type and Hsp27 knockout cells; assay type: binding; details: wild-type (WT) HAP1 cells
From the text: First, we conducted photoaffinity labeling studies with wild-type (WT) HAP1 cells to verify the existence of the 25 kDa covalent modification that we observed in PC12 cells.
Figure 7 Photoaffinity Labeling Experiments with HAP1 cells. […] The nonspecific background modifications remain unchanged with increasing concentration of P3, further confirming the 25 kDa covalently modified band as a true target; (B) comparison of the photoaffinity labeling experiments with HAP1 wild-type (WT) cells and Hsp27 knockout (KO) cells at 15 μM PRAPP concentration.

[5] = set-up: method as in PMID 23828940; details: cell lysate, original CETSA protocol; cited from earlier work
[6] = hits and leads of the authors' earlier work, read-out: EC50

Question: Which EC50 (PC12 SOD1^G93A cells [1]) does the source give for `C#CCN(Cc1c(F)c(F)c(N=[N+]=[N-])c(F)c1F)Cc1cc(=O)n(C(C)=O)n1C(C)=O` [IPC1, 1,1′-(5-(((4-Azido-2,3,5,6-tetrafluorobenzyl)(prop-2-yn-1-yl)amino)methyl)-3-oxo-1H-pyrazole-1,2(3H)-diyl)bis(ethan-1-one)] here?
Answer: The EC50 was greater than 16000 nM.

Question: With `C#CCNCc1c(F)c(F)c(N=[N+]=[N-])c(F)c1F` [IPC2, N-(4-Azido-2,3,5,6-tetrafluorobenzyl)prop-2-yn-1-amine] as the molecule, how does the EC50 (PC12 SOD1^G93A cells [1]) read?
Answer: Its EC50 is greater than 16000 nM.

Question: For `CC(Oc1cc(C(F)(F)F)cc(C(F)(F)F)c1)C1CC(=O)CC(=O)C1` (stereo not drawn) [P1], which “concentration-dependent disappearance of the 25 kDa protein band in competition with PRAPP” value ([2]; 30 μM PRAPP) is on record?
Answer: Its value is “not compete out the 25 kDa covalently modified band in a concentration -dependent manner; also recorded: did not show a quantifiable concentration-dependent disappearance”.

Question: What about the “25 kDa band intensity in competition with PRAPP” value ([2]; 480 μM P1 concentration) of the same molecule?
Answer: Its value is “slight reduction of the 25 kDa band intensity”.

Question: What about the “Tm shift (ΔTm)” value (14-3-3-E) of the same molecule?
Answer: The value was “did not show a Tm shift”.

Question: And the EC50 (PC12 SOD1^G93A cells [3]; [6])?
Answer: Its EC50 is 300 nM.

Question: Which results are given for `CN(Cc1cc(Cl)cc(Cl)c1)Cc1cc(=O)[nH][nH]1` [P3]?
Answer: competitor to PRAPP ratio at complete disappearance of the band ([2]; 30 μM PRAPP): 32; EC50 ([2]; 30 μM PRAPP, scenario 1, n = 2, read-out: EC50 for the competition with PRAPP (25 kDa band intensity)): 26700 nM; competition of PRAPP labeling, band 1 around 25 kDa [4]: concentration-dependent disappearance; EC50 (PC12 SOD1^G93A cells [3]; leads of the authors' earlier work, read-out: EC50 (NP = neuroprotection)): 400 nM

Question: With `O=C1CC(=O)CC(c2ccc(F)cc2)C1` [compound 3] as the molecule, how does the EC50 (PC12 SOD1^G93A cells [3]; [6]) read?
Answer: The EC50 was 800 nM.

Question: With `Cc1cc(SCc2cc(=O)[nH][nH]2)c(C)cc1Cl` [compound 4] as the molecule, how does the EC50 (PC12 SOD1^G93A cells [3]; [6]) read?
Answer: The EC50 was 400 nM.

Question: Which “concentration-dependent disappearance of the 25 kDa protein band in competition with PRAPP” value ([2]; 30 μM PRAPP) does the source give for `CC1=NN(c2ccccc2)C(=O)C1` [edaravone, reference compound] here?
Answer: The value was “did not show a quantifiable concentration-dependent disappearance”.

Question: For `CN(Cc1cnc2nc(N)nc(N)c2n1)c1ccc(C(=O)N[C@@H](CCC(=O)O)C(=O)O)cc1` [methotrexate], which “drug concentration of maximum response in ITDR CETSA” value [5] is on record?
Answer: The value was 100 to 250 µM.

Question: With `Cc1nc2ccc(CN(C)c3ccc(C(=O)N[C@@H](CCC(=O)O)C(=O)O)s3)cc2c(=O)[nH]1` [raltitrexed] as the molecule, how does the “drug concentration of maximum response in ITDR CETSA” value [5] read?
Answer: The value was 100 to 250 µM.
